# Assay results: ChEMBL document CHEMBL5120841, “Discovery of novel pleuromutilin derivatives as potent antibacterial agents” (2022)
# The source made the active and inactive calls. No cut-off for these calls is given here.
# Key:
# Type in all cases: functional
# Bacillus subtilis = assay: Antibacterial activity against Bacillus subtilis assessed as bacterial growth inhibition incubated for 18 to 24 hrs by microtiter dilution method; settings: time 18-24 hrs
# Enterococcus faecalis = assay: Antibacterial activity against Enterococcus faecalis assessed as bacterial growth inhibition incubated for 18 to 24 hrs by microtiter dilution method; settings: time 18-24 hrs
# Staphylococcus aureus [1] = assay: Antibacterial activity against Staphylococcus aureus ATCC 25923 assessed as bacterial growth inhibition incubated for 18 to 24 hrs by microtiter dilution method; settings: time 18-24 hrs
# Staphylococcus aureus [2] = assay: Antibacterial activity against methicillin-resistant Staphylococcus aureus BNCC 337371 assessed as bacterial growth inhibition incubated for 18 to 24 hrs by microtiter dilution method; settings: time 18-24 hrs
# Escherichia coli = assay: Antibacterial activity against Escherichia coli CICC 10389 assessed as bacterial growth inhibition incubated for 18 to 24 hrs by microtiter dilution method; settings: time 18-24 hrs
# [3] = tested on: Staphylococcus epidermidis; assay: Antibacterial activity against methicillin-resistant Staphylococcus epidermidis ATCC 51625 assessed as bacterial growth inhibition incubated for 18 to 24 hrs by microtiter dilution method; settings: time 18-24 hrs
# Staphylococcus aureus [4] = assay: Antibacterial activity against methicillin-resistant Staphylococcus aureus BNCC 337371 assessed as reduction on bacterial count at 6X MIC incubated for 24 hrs by time killing assay
# Staphylococcus aureus [5] = assay: Antibacterial activity against Staphylococcus aureus ATCC 25923 assessed as reduction on bacterial count at 6X MIC incubated for 24 hrs by time killing assay
SMILES,MIC (Bacillus subtilis) [µg/mL],MIC (Enterococcus faecalis) [µg/mL],MIC (Staphylococcus aureus [1]) [µg/mL],MIC (Staphylococcus aureus [2]) [µg/mL],MIC (Escherichia coli) [µg/mL],MIC [3] [µg/mL],Activity (Staphylococcus aureus [4]),Activity (Staphylococcus aureus [5])
C=C[C@]1(C)C[C@@H](OC(=O)CSc2nc(C)c(C(=O)OC)c(C(CC)CC)n2)[C@]2(C)[C@H](C)CC[C@]3(CCC(=O)[C@H]32)[C@@H](C)[C@@H]1O,> 16,> 16,0.25,0.25,> 16,0.5,,
C=C[C@]1(C)C[C@@H](OC(=O)CSc2nc(C)c(C(=O)OC)c(CC(C)C)n2)[C@]2(C)[C@H](C)CC[C@]3(CCC(=O)[C@H]32)[C@@H](C)[C@@H]1O,> 16,> 16,0.25,0.25,> 16,0.5,,
C=C[C@]1(C)C[C@@H](OC(=O)CSc2nc(C)c(C(=O)OCCC)c(C)n2)[C@]2(C)[C@H](C)CC[C@]3(CCC(=O)[C@H]32)[C@@H](C)[C@@H]1O,4,> 16,0.25,0.125,> 16,0.125,,
C=C[C@]1(C)C[C@@H](OC(=O)CSC2=NC(CCCC)=C(C(=O)OC)C(C)N2)[C@]2(C)[C@H](C)CC[C@]3(CCC(=O)[C@H]32)[C@@H](C)[C@@H]1O (stereo partly drawn),> 16,> 16,1,1,> 16,1,,
C=C[C@]1(C)C[C@@H](OC(=O)CSC2=NC(C)=C(C(C)=O)C(C)N2)[C@]2(C)[C@H](C)CC[C@]3(CCC(=O)[C@H]32)[C@@H](C)[C@@H]1O (stereo partly drawn),> 16,> 16,0.125,0.25,> 16,0.25,,
C=C[C@]1(C)C[C@@H](OC(=O)CS[C@@H]2C[C@H]3CC[C@@H](C2)N3C)[C@]2(C)[C@H](C)CC[C@]3(CCC(=O)[C@H]32)[C@@H](C)[C@@H]1O [RETAPAMULIN],8,> 16,0.25,0.125,> 16,0.125,3.3 log10CFU/ml,2.25 log10CFU/ml
C=C[C@]1(C)C[C@@H](OC(=O)CSC2=NC(CC(C)C)=C(C(=O)OC)C(C)N2)[C@]2(C)[C@H](C)CC[C@]3(CCC(=O)[C@H]32)[C@@H](C)[C@@H]1O (stereo partly drawn),> 16,> 16,1,0.5,> 16,0.5,,
C=C[C@]1(C)C[C@@H](OC(=O)CSC2=NC(C)=C(C(=O)OCC)C(C)N2)[C@]2(C)[C@H](C)CC[C@]3(CCC(=O)[C@H]32)[C@@H](C)[C@@H]1O (stereo partly drawn),> 16,> 16,0.0625,0.125,> 16,0.0625,,
C=CCOC(=O)c1c(C)nc(SCC(=O)O[C@@H]2C[C@@](C)(C=C)[C@@H](O)[C@H](C)[C@]34CCC(=O)[C@H]3[C@@]2(C)[C@H](C)CC4)nc1C,4,> 16,0.125,1,> 16,0.25,,
C=C[C@]1(C)C[C@@H](OC(=O)CSC2=NC(C)=C(C(=O)OC)C(C)N2)[C@]2(C)[C@H](C)CC[C@]3(CCC(=O)[C@H]32)[C@@H](C)[C@@H]1O (stereo partly drawn),8,> 16,0.25,0.25,> 16,0.125,,
C=C[C@]1(C)C[C@@H](OC(=O)CSc2nc(C)c(C(=O)OC(C)CC)c(C)n2)[C@]2(C)[C@H](C)CC[C@]3(CCC(=O)[C@H]32)[C@@H](C)[C@@H]1O (stereo partly drawn),> 16,> 16,0.5,0.5,> 16,0.5,,
C=C[C@]1(C)C[C@@H](OC(=O)CSc2nc(C)c(C(C)=O)c(C)n2)[C@]2(C)[C@H](C)CC[C@]3(CCC(=O)[C@H]32)[C@@H](C)[C@@H]1O,1,> 16,≤ 0.0156,≤ 0.0156,> 16,0.0313,Active,Active
C=C[C@]1(C)C[C@@H](OC(=O)CSC2=NC(CCC)=C(C(=O)OC)C(C)N2)[C@]2(C)[C@H](C)CC[C@]3(CCC(=O)[C@H]32)[C@@H](C)[C@@H]1O (stereo partly drawn),16,> 16,4,8,> 16,4,,
C=C[C@]1(C)C[C@@H](OC(=O)CSC2=NC(C)=C(C(=O)OC(C)CC)C(C)N2)[C@]2(C)[C@H](C)CC[C@]3(CCC(=O)[C@H]32)[C@@H](C)[C@@H]1O (stereo partly drawn),> 16,> 16,0.5,0.5,> 16,1,,
C=C[C@]1(C)C[C@@H](OC(=O)CSc2nc(C)c(C(=O)OC)c(CC)n2)[C@]2(C)[C@H](C)CC[C@]3(CCC(=O)[C@H]32)[C@@H](C)[C@@H]1O,4,> 16,0.0313,0.0625,> 16,0.0625,,
C=C[C@]1(C)C[C@@H](OC(=O)CSc2nc(C)c(C(=O)OC)c(CCC)n2)[C@]2(C)[C@H](C)CC[C@]3(CCC(=O)[C@H]32)[C@@H](C)[C@@H]1O,16,> 16,0.25,0.125,> 16,0.0625,,
C=C[C@]1(C)C[C@@H](OC(=O)CSc2nc(C)c(C(=O)OC)c(C)n2)[C@]2(C)[C@H](C)CC[C@]3(CCC(=O)[C@H]32)[C@@H](C)[C@@H]1O,2,> 16,≤ 0.0156,≤ 0.0156,> 16,0.0313,Active,Active
C=C[C@]1(C)C[C@@H](OC(=O)CSC2=NC(C(CC)CC)=C(C(=O)OC)C(C)N2)[C@]2(C)[C@H](C)CC[C@]3(CCC(=O)[C@H]32)[C@@H](C)[C@@H]1O (stereo partly drawn),> 16,> 16,0.5,0.25,> 16,0.25,,
C=C[C@]1(C)C[C@@H](OC(=O)CSc2nc(C)c(C(=O)OC)c(CCCC)n2)[C@]2(C)[C@H](C)CC[C@]3(CCC(=O)[C@H]32)[C@@H](C)[C@@H]1O,> 16,> 16,2,4,> 16,0.5,,
C=CCOC(=O)C1=C(C)N=C(SCC(=O)O[C@@H]2C[C@@](C)(C=C)[C@@H](O)[C@H](C)[C@]34CCC(=O)[C@H]3[C@@]2(C)[C@H](C)CC4)NC1C (stereo partly drawn),> 16,> 16,0.25,0.25,> 16,0.5,,
C=C[C@]1(C)C[C@@H](OC(=O)CSC2=NC(C)=C(C(=O)OCCC)C(C)N2)[C@]2(C)[C@H](C)CC[C@]3(CCC(=O)[C@H]32)[C@@H](C)[C@@H]1O (stereo partly drawn),> 16,> 16,0.25,0.5,> 16,0.5,,
C=C[C@]1(C)C[C@@H](OC(=O)CSC2=NC(CC)=C(C(=O)OC)C(C)N2)[C@]2(C)[C@H](C)CC[C@]3(CCC(=O)[C@H]32)[C@@H](C)[C@@H]1O (stereo partly drawn),8,> 16,0.5,0.25,> 16,0.125,,
